The source of these data is patent US9387200B2, “Isothiazole-pyridine derivatives as modulators of HIF (hypoxia inducible factor) activity” (FibroGen, Inc., priority 2008, dated 2016).

Structures are written as SMILES.

T1 sequence (Q9GZT9 whole entry, species assumed): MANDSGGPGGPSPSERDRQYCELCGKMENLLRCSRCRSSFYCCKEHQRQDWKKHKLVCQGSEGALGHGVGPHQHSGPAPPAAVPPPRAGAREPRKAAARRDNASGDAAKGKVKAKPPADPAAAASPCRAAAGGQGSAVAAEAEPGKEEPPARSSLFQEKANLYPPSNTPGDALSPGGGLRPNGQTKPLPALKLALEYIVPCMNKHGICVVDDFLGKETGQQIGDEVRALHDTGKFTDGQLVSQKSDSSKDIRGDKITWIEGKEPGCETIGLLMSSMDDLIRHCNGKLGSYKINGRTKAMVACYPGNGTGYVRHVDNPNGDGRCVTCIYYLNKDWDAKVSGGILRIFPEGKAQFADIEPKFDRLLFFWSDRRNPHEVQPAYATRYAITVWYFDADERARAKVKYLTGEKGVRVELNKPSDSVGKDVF

One experiment has as its target T1, HIF-PH2 (Homo sapiens, UniProt Q9GZT9).
T1 construct: made in house; host or cells: insect Hi5 cells
Briefly: HIF-PH assay (14CO2 capture, peptide-dependent turnover). The class given is biochemical. The conditions noted are these: compound concentration 22.22 μM. The source says:
Ketoglutaric acid α-[1-^14C]-sodium salt, alpha-ketoglutaric acid sodium salt, and HPLC purified peptide may be obtained from commercial sources, e.g., Perkin-Elmer (Wellesley Mass.), Sigma-Aldrich, and SynPep Corp. (Dublin Calif.), respectively. Peptides for use in the assay may be fragments of HIFα as described above or as disclosed in International Publication WO 2005/118836, incorporated by reference herein. For example, a HIF peptide for use in the HIF-PH assay is [methoxycoumarin]-DLDLEALAPYIPADDDFQL-amide. HIF-PH, e.g., HIF-PH2 (EGLN1), can be expressed in, e.g., insect Hi5 cells, and partially purified, e.g., through a SP ion exchange chromatography column. Enzyme activity is determined by capturing ^14CO2 using an assay described by Kivirikko and Myllyla (1982, Methods Enzymol. 82:245-304). Assay reactions contain 50 mM HEPES (pH 7.4), 100 μM α-ketoglutaric acid sodium salt, 0.30 μCi/mL ketoglutaric acid α-[1-^14C]-sodium salt, 40 μM FeSO4, 1 mM ascorbate, 1541.8 units/mL Catalase, with or without 50 μM peptide substrate and various concentrations of compound of the invention. Reactions are initiated by addition of HIF-PH enzyme.
The peptide-dependent percent turnover is calculated by subtracting percent turnover in the absence of peptide from percent turnover in the presence of substrate peptide. Percent inhibition and IC50 are calculated using peptide-dependent percent turnover at given inhibitor concentrations. Calculation of IC50 values for each inhibitor is conducted using GraFit software (Erithacus Software Ltd., Surrey UK).
Representative compounds of the invention were analyzed using the HIF-PH assay described above. Table I below presents enzyme inhibition data for exemplary compounds against HIF-PH2, a representative HIF prolyl hydroxylase enzyme. By inhibiting HIF prolyl hydroxylase enzymes, compounds of the invention stabilize HIFα, which then combines with HIFβ to form an active transcription factor that increases expression of various genes involved in numerous beneficial cellular processes.
With `N#Cc1nc(C(=O)NCC(=O)O)c(O)c2c(-c3ccc(F)cc3)nsc12` [Example 8, {[7-Cyano-3-(4-fluoro-phenyl)-4-hydroxy-isothiazolo[5,4-c]pyridine-5-carbonyl]-amino}-acetic acid], the inhibition – broadly, the percentage by which the read-out fell short of the control – at 22.22 µM was 98.3%.
As to `N#Cc1ccc(-c2nc(C(=O)NCC(=O)O)c(O)c3c(-c4ccc(F)cc4)nsc23)cc1` [Example 11, {[7-(4-Cyano-phenyl)-3-(4-fluoro-phenyl)-4-hydroxy-isothiazolo[5,4-c]pyridine-5-carbonyl]-amino}-acetic acid], the inhibition at 22.22 µM amounted to 91.5%.
Turning to `O=C(O)CNC(=O)c1nc(Cc2ccccc2)c2snc(-c3ccc(Cl)cc3)c2c1O` [Example 22, {[7-Benzyl-3-(4-chloro-phenyl)-4-hydroxy-isothiazolo[5,4-c]pyridine-5-carbonyl]-amino}-acetic acid], the inhibition at 22.22 µM amounted to 97%.
As to `O=C(O)CNC(=O)c1nc(-c2cn(Cc3ccccc3)nn2)c2snc(-c3ccc(Cl)cc3)c2c1O` [Example 23, {[7-(1-Benzyl-1H-[1,2,3]triazol-4-yl)-3-(4-chloro-phenyl)-4-hydroxy-isothiazolo[5,4-c]pyridine-5-carbonyl]-amino}-acetic acid], 22.22 µM produced 100% inhibition.
Still for that read-out and setting: then `O=C(O)CNC(=O)c1nc(-c2cccc3ccccc23)c2snc(-c3ccc(Cl)cc3)c2c1O` [Example 24, {[3-(4-Chloro-phenyl)-4-hydroxy-7-naphthalen-1-yl-isothiazolo[5,4-c]pyridine-5-carbonyl]-amino}-acetic acid], with 96%.

Still in this experiment, the particulars now being: compound concentration 200 μM.
In turn, `O=C(O)CNC(=O)c1nc(-c2ccc(F)cc2)c2snc(-c3ccccc3)c2c1O` [Example 1, {[7-(4-Fluoro-phenyl)-4-hydroxy-3-phenyl-isothiazolo[5,4-c]pyridine-5-carbonyl]-amino}-acetic acid] showed an inhibition at 200 µM of 98%.
Consider `COc1ccc(-c2nc(C(=O)NCC(=O)O)c(O)c3c(-c4ccccc4)nsc23)cc1` [Example 2, {[4-Hydroxy-7-(4-methoxy-phenyl)-3-phenyl-isothiazolo[5,4-c]pyridine-5-carbonyl]-amino}-acetic acid], for which the inhibition at 200 µM came out at 97.9%.
The same measure, in the same setting: then `O=C(O)CNC(=O)c1nc(-c2cccnc2)c2snc(-c3ccccc3)c2c1O` [Example 3, [(4-Hydroxy-3-phenyl-7-pyridin-3-yl-isothiazolo[5,4-c]pyridine-5-carbonyl)-amino]-acetic acid], with 100%; and `O=C(O)CNC(=O)c1nc(-c2ccccn2)c2snc(-c3ccccc3)c2c1O` [Example 4, [(4-Hydroxy-3-phenyl-7-pyridin-2-yl-isothiazolo[5,4-c]pyridine-5-carbonyl)-amino]-acetic acid], with 99.1%; and `O=C(O)CNC(=O)c1nc(-c2ccncc2)c2snc(-c3ccccc3)c2c1O` [Example 5, [(4-Hydroxy-3-phenyl-7-pyridin-4-yl-isothiazolo[5,4-c]pyridine-5-carbonyl)-amino]-acetic acid], with 97.1%.
On the same count and under the same terms, then `C#Cc1nc(C(=O)NCC(=O)O)c(O)c2c(-c3ccc(F)cc3)nsc12` [Example 6, {[7-Ethynyl-3-(4-fluoro-phenyl)-4-hydroxy-isothiazolo[5,4-c]pyridine-5-carbonyl]-amino}-acetic acid], with 98.3%; and `O=C(O)CNC(=O)c1nc(Br)c2snc(-c3ccc(F)cc3)c2c1O` [Example 7, {[7-Bromo-3-(4-fluoro-phenyl)-4-hydroxy-isothiazolo[5,4-c]pyridine-5-carbonyl]-amino}-acetic acid], with 100%.
On the same count and under the same terms, to `Cc1nc(C(=O)NCC(=O)O)c(O)c2c(-c3ccc(F)cc3)nsc12` [Example 9, {[3-(4-Fluoro-phenyl)-4-hydroxy-7-methyl-isothiazolo[5,4-c]pyridine-5-carbonyl]-amino}-acetic acid] belongs 97.4%; to `O=C(O)CNC(=O)c1nc(-c2ccccc2)c2snc(-c3ccc(F)cc3)c2c1O` [Example 10, {[3-(4-Fluoro-phenyl)-4-hydroxy-7-phenyl-isothiazolo[5,4-c]pyridine-5-carbonyl]-amino}-acetic acid], 98.2%.
In the case of `O=C(O)CNC(=O)c1ncc2snc(-c3ccc(F)cc3)c2c1O` [Example 12, {[3-(4-Fluoro-phenyl)-4-hydroxy-isothiazolo[5,4-c]pyridine-5-carbonyl]-amino}-acetic acid], the inhibition at 200 µM came out at 98.9%.
The same measure, in the same setting: then `COc1ccc(-c2nc(C(=O)NCC(=O)O)c(O)c3c(-c4ccc(Cl)cc4)nsc23)cc1` [Example 13, {[3-(4-Chloro-phenyl)-4-hydroxy-7-(4-methoxy-phenyl)-isothiazolo[5,4-c]pyridine-5-carbonyl]-amino}-acetic acid], with 94.5%; and `C#Cc1nc(C(=O)NCC(=O)O)c(O)c2c(-c3ccc(Cl)cc3)nsc12` [Example 14, {[3-(4-Chloro-phenyl)-7-ethynyl-4-hydroxy-isothiazolo[5,4-c]pyridine-5-carbonyl]-amino}-acetic acid], with 100%; and `Cc1nc(C(=O)NCC(=O)O)c(O)c2c(-c3ccc(Cl)cc3)nsc12` [Example 15, {[3-(4-Chloro-phenyl)-4-hydroxy-7-methyl-isothiazolo[5,4-c]pyridine-5-carbonyl]-amino}-acetic acid], with 99.5%.
On the same count and under the same terms, to `O=C(O)CNC(=O)c1ncc2snc(-c3ccc(Cl)cc3)c2c1O` [Example 16, {[3-(4-Chloro-phenyl)-4-hydroxy-isothiazolo[5,4-c]pyridine-5-carbonyl]-amino}-acetic acid] belongs 99.9%; to `O=C(O)CNC(=O)c1nc(-c2ccccc2)c2snc(-c3ccc(Cl)cc3)c2c1O` [Example 17, {[3-(4-Chloro-phenyl)-4-hydroxy-7-phenyl-isothiazolo[5,4-c]pyridine-5-carbonyl]-amino}-acetic acid], 98.7%; to `C[C@@H](NC(=O)c1ncc2snc(-c3ccc(Cl)cc3)c2c1O)C(=O)O` [Example 18, (R)-2-{[3-(4-Chloro-phenyl)-4-hydroxy-isothiazolo[5,4-c]pyridine-5-carbonyl]-amino}-propionic acid], 54%.
Same read-out and setting: then `C[C@H](NC(=O)c1ncc2snc(-c3ccc(Cl)cc3)c2c1O)C(=O)O` [Example 19, (S)-2-{[3-(4-Chloro-phenyl)-4-hydroxy-isothiazolo[5,4-c]pyridine-5-carbonyl]-amino}-propionic acid], with 100%; and `COc1cccc(-c2nc(C(=O)NCC(=O)O)c(O)c3c(-c4ccc(Cl)cc4)nsc23)c1` [Example 20, {[3-(4-Chloro-phenyl)-4-hydroxy-7-(3-methoxy-phenyl)-isothiazolo[5,4-c]pyridine-5-carbonyl]-amino}-acetic acid], with 88.9%; and `COc1ccc(-c2nc(C(=O)NCC(=O)O)c(O)c3c(-c4ccc(Cl)cc4)nsc23)cn1` [Example 21, {[3-(4-Chloro-phenyl)-4-hydroxy-7-(6-methoxy-pyridin-3-yl)-isothiazolo[5,4-c]pyridine-5-carbonyl]-amino}-acetic acid], with 77%.
As to `CC(=O)c1nc(C(=O)NCC(=O)O)c(O)c2c(-c3ccc(Cl)cc3)nsc12` [Example 25, {[7-Acetyl-3-(4-chloro-phenyl)-4-hydroxy-isothiazolo[5,4-c]pyridine-5-carbonyl]-amino}-acetic acid], at 200 µM the inhibition was 100%.
